Test results from ChEMBL document CHEMBL1201862, “PubChem BioAssay data set” (2004).
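Tested at 5 concentrations; 48 h exposure; 96-well plates; endpoints linearly interpolated, else capped at highest concentration. GI50 = concentration required for 50% inhibition of growth.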 The source made the active and inactive calls. Rule as the data show it: active = GI50 up to about 1.1 µM and inactive = higher.

What was measured:
Assay in all cases: DTP human tumour cell line panel, 48 h
HOP-62 = system: HOP-62
K562 = system: K562
SK-MEL-2 = system: SK-MEL-2
NCI-H460 = system: NCI-H460
HT-29 = system: HT-29
SK-OV-3 = system: SK-OV-3
SNB-19 = system: SNB-19
SW-620 = system: SW-620
CAKI-1 = system: CAKI-1
SN12C = system: SN12C
CCRF-CEM = system: CCRF-CEM
OVCAR-3 = system: OVCAR-3
M19-MEL = system: M19-MEL
EKVX = system: EKVX
A498 = system: A498
RPMI-8226 = system: RPMI-8226
HL-60 = system: HL-60

Row | Compound | GI50 (HOP-62) | GI50 (K562) | GI50 (SK-MEL-2) | GI50 (NCI-H460) | GI50 (HT-29) | GI50 (SK-OV-3) | GI50 (SNB-19) | GI50 (SW-620) | GI50 (CAKI-1) | GI50 (SN12C) | GI50 (CCRF-CEM) | GI50 (OVCAR-3) | GI50 (M19-MEL) | GI50 (EKVX) | GI50 (A498) | GI50 (RPMI-8226) | GI50 (HL-60)
1 | CCCN1C(=O)C/C(=C\C(C)=O)Nc2ccccc21 | > 100 µM (inactive) | > 100 µM (inactive) | > 100 µM (inactive) | > 100 µM (inactive) | > 100 µM (inactive) | > 100 µM (inactive) | > 100 µM (inactive) | > 100 µM (inactive) | > 100 µM (inactive) | > 100 µM (inactive) | > 100 µM (inactive) | > 100 µM (inactive) | > 100 µM (inactive) | > 100 µM (inactive) |  |  | 
2 | O=c1cc2ccccc2nn1-c1ccccc1Cl | > 100 µM (inactive) | 59.6 µM (inactive) | > 100 µM (inactive) | > 100 µM (inactive) | > 100 µM (inactive) | > 100 µM (inactive) | > 100 µM (inactive) | > 100 µM (inactive) | > 100 µM (inactive) | > 100 µM (inactive) | 86.3 µM (inactive) | 81.3 µM (inactive) | > 100 µM (inactive) | > 100 µM (inactive) | > 100 µM (inactive) | 42.4 µM (inactive) | 
3 | O=c1cccccc1NCCCCCCCCNc1cccccc1=O | > 100 µM (inactive) | 7.06 µM (inactive) | > 100 µM (inactive) | 85.7 µM (inactive) | > 100 µM (inactive) | > 100 µM (inactive) | 38.1 µM (inactive) | > 100 µM (inactive) | > 100 µM (inactive) | > 100 µM (inactive) | > 100 µM (inactive) | 7.59 µM (inactive) | > 100 µM (inactive) | 24.9 µM (inactive) |  | 6.56 µM (inactive) | 3.53 µM (inactive)
4 | CN(C)CCCNc1ccnc2c([N+](=O)[O-])cccc12 | 29.3 µM (inactive) | > 10 µM (inactive) | > 10 µM (inactive) | 15.5 µM (inactive) | 3.56 µM (inactive) | 3.85 µM (inactive) | 23.4 µM (inactive) | 15.2 µM (inactive) | 35.3 µM (inactive) | 14.6 µM (inactive) | 34.3 µM (inactive) | 3.56 µM (inactive) | 2.44 µM (inactive) | 10.5 µM (inactive) |  | 21.6 µM (inactive) | > 10 µM (inactive)
5 | O=S(=O)(c1ccccc1)n1cnc(CCc2ccccc2)n1 | > 100 µM (inactive) | > 100 µM (inactive) | > 100 µM (inactive) | > 100 µM (inactive) | > 100 µM (inactive) | > 100 µM (inactive) |  | > 100 µM (inactive) | > 100 µM (inactive) | > 100 µM (inactive) | > 100 µM (inactive) | > 100 µM (inactive) | > 100 µM (inactive) |  | > 100 µM (inactive) | > 100 µM (inactive) | > 100 µM (inactive)
6 | COc1ccccc1/C=C(\C#N)c1ccccc1 | 46.5 µM (inactive) | 11.4 µM (inactive) | 27.2 µM (inactive) | 23.8 µM (inactive) | 29.9 µM (inactive) | 26.7 µM (inactive) |  | 23.7 µM (inactive) | 16.6 µM (inactive) | 49.1 µM (inactive) | 17.7 µM (inactive) | 19.5 µM (inactive) | 32.6 µM (inactive) |  | 24.2 µM (inactive) | 20.8 µM (inactive) | 
7 | N=C(N)NS(=O)(=O)c1ccc(Nc2c3ccccc3nc3c(C(=O)Nc4ccc(S(N)(=O)=O)cc4)cccc23)cc1 | > 100 µM (inactive) | 33.3 µM (inactive) | 42.5 µM (inactive) | > 100 µM (inactive) | > 100 µM (inactive) | > 100 µM (inactive) | 37 µM (inactive) | > 100 µM (inactive) | > 100 µM (inactive) | > 100 µM (inactive) | 71.3 µM (inactive) | 36.8 µM (inactive) | > 100 µM (inactive) | > 100 µM (inactive) | > 100 µM (inactive) | > 100 µM (inactive) | 88.1 µM (inactive)
8 | O=C(c1ccccc1)c1c(-c2ccccc2)sc2nc3ccccc3nc12 | 34.8 µM (inactive) | > 100 µM (inactive) | > 100 µM (inactive) | > 100 µM (inactive) | > 100 µM (inactive) | > 100 µM (inactive) | 55 µM (inactive) | > 100 µM (inactive) | > 100 µM (inactive) | > 100 µM (inactive) | > 100 µM (inactive) | > 100 µM (inactive) | > 100 µM (inactive) | > 100 µM (inactive) | > 100 µM (inactive) | > 100 µM (inactive) | > 100 µM (inactive)
9 | COC1=CC(=O)c2c(cc3c(c2O)-c2c(OC)cc4cc5c(c(O)c4c2OC(=O)CC(C)(O)C3)C(=O)CC(C)(O)C5)C1=O (stereo unspecified) | 1.21 µM (inactive) | 2.44 µM (inactive) | 1.28 µM (inactive) | 1.31 µM (inactive) | 1.96 µM (inactive) | 2.76 µM (inactive) | 1.71 µM (inactive) | 2.37 µM (inactive) | 2.23 µM (inactive) | 1.8 µM (inactive) | 1.95 µM (inactive) | 0.577 µM (active) | 0.379 µM (active) | 2.27 µM (inactive) | 2.48 µM (inactive) | 1.32 µM (inactive) | 1.34 µM (inactive)
10 | Cc1cc(=O)cc2sc3cc(Cl)ccc3nc1-2 | 15.6 µM (inactive) | 4.09 µM (inactive) | 7.01 µM (inactive) | 7.55 µM (inactive) | 20.3 µM (inactive) | 20.7 µM (inactive) | 5.93 µM (inactive) | 6.9 µM (inactive) | 19.7 µM (inactive) | 7.45 µM (inactive) | 1.39 µM (inactive) | 8.89 µM (inactive) | 16.3 µM (inactive) | 4.72 µM (inactive) | 19.9 µM (inactive) | 5.87 µM (inactive) | 2.66 µM (inactive)
11 | C#Cc1cccc(N2C(=O)c3c(c(-c4ccccc4)c(-c4ccc(Cc5ccc(-c6c(-c7ccccc7)c7c(c(-c8ccccc8)c6-c6ccccc6)C(=O)N(c6cccc(C#C)c6)C7=O)cc5)cc4)c(-c4ccccc4)c3-c3ccccc3)C2=O)c1 | 25.8 µM (inactive) | 16.9 µM (inactive) | 57.9 µM (inactive) | 43.2 µM (inactive) | 51.4 µM (inactive) |  | 40 µM (inactive) | 33 µM (inactive) |  | 20.7 µM (inactive) | 26.6 µM (inactive) | 44.3 µM (inactive) | 23.1 µM (inactive) | 51.2 µM (inactive) |  | 24.9 µM (inactive) | 22.3 µM (inactive)
12 | Cc1cc([N+](=O)[O-])ccc1Nc1cccc(Cl)c1C | 14.7 µM (inactive) | 11.3 µM (inactive) | 14.9 µM (inactive) |  | 17.6 µM (inactive) | 24.3 µM (inactive) | 19.1 µM (inactive) | 24.3 µM (inactive) | 11.6 µM (inactive) | 16.7 µM (inactive) | 16.5 µM (inactive) | 13.7 µM (inactive) | 16.5 µM (inactive) | 20 µM (inactive) | 15.3 µM (inactive) |  | 18.2 µM (inactive)
13 | CCOC(=O)C(=Cc1cccnc1C)C(=O)OCC | 18.8 µM (inactive) | 3.39 µM (inactive) | 4.08 µM (inactive) | 15.6 µM (inactive) | 5.15 µM (inactive) | 11.3 µM (inactive) | 11.3 µM (inactive) | 5.32 µM (inactive) | 6.21 µM (inactive) | 4.43 µM (inactive) | 3.93 µM (inactive) | 2.67 µM (inactive) | 7.91 µM (inactive) | 16.4 µM (inactive) | 10.9 µM (inactive) |  | 3.78 µM (inactive)
14 | COC(=O)C(=O)C(C#N)c1c(Cl)cccc1Cl (stereo unspecified) | > 100 µM (inactive) | > 100 µM (inactive) | > 100 µM (inactive) | > 100 µM (inactive) | > 100 µM (inactive) | > 100 µM (inactive) | > 100 µM (inactive) | > 100 µM (inactive) | > 100 µM (inactive) | > 100 µM (inactive) |  | > 100 µM (inactive) | > 100 µM (inactive) | > 100 µM (inactive) | > 100 µM (inactive) | > 100 µM (inactive) | > 100 µM (inactive)
15 | CCC(/C=C/c1ccccc1)=N\N=C(\C=C\c1ccccc1)CC | > 100 µM (inactive) | > 100 µM (inactive) | > 100 µM (inactive) | > 100 µM (inactive) | > 100 µM (inactive) | > 100 µM (inactive) | > 100 µM (inactive) | > 100 µM (inactive) |  | > 100 µM (inactive) | > 100 µM (inactive) | > 100 µM (inactive) | > 100 µM (inactive) | > 100 µM (inactive) | > 100 µM (inactive) | > 100 µM (inactive) | > 100 µM (inactive)
16 | O=C1C2Cc3ccccc3CN2C(=O)N1CCN1CCOCC1 (stereo unspecified) | > 100 µM (inactive) | > 100 µM (inactive) | > 100 µM (inactive) | > 100 µM (inactive) |  |  | > 100 µM (inactive) | > 100 µM (inactive) | > 100 µM (inactive) | > 100 µM (inactive) | > 100 µM (inactive) | > 100 µM (inactive) | > 100 µM (inactive) |  | > 100 µM (inactive) | > 100 µM (inactive) | > 100 µM (inactive)
17 | CN(C)CCCCC1CCN(CC(=O)N2c3ccccc3NC(=O)c3ccccc32)CC1 | > 100 µM (inactive) | > 100 µM (inactive) | > 100 µM (inactive) |  | 61.2 µM (inactive) | > 100 µM (inactive) | > 100 µM (inactive) | > 100 µM (inactive) | > 100 µM (inactive) | > 100 µM (inactive) | 69.8 µM (inactive) | > 100 µM (inactive) | > 100 µM (inactive) | > 100 µM (inactive) | > 100 µM (inactive) | > 100 µM (inactive) | > 100 µM (inactive)
